In patent publication US8129398B2 (priority 2008, dated 2012) one finds IC50 data, which are given here for 25 compounds.

In the assay the target is T1, HIV-integrase (Human immunodeficiency virus type 1 group M subtype B, UniProt P12497).
T1 construct: Recombinant integrase (0.26 ng) was incubated with the beads
In words: HIV-Integrase Inhibition Activity (SPA bead integration assay with P33 labeled target DNA). It counts as biochemical. The settings on record: recombinant integrase, class symbols; read-out: in vitro activity. A digest of the protocol: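 Strand integration read as bead-proximity CPM after P33 target DNA (0.1 fmol) and inhibitor were added to washed integrase–substrate DNA complexes on SPA beads. Enzyme bound 90 min at 37° C; EDTA (10 mM final) terminated reaction; IC50 graded A/B/C.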
In the case of `CN(C)C(=O)C(=O)NC12CCC(Cn3c1nc(C(=O)NCc1ccc(F)cc1)c(O)c3=O)C2` (stereo not shown) [Example 188, Ethanediamide, N′-[2-[[[(4-fluorophenyl)methyl]amino]carbonyl]-6,7,8,9-tetrahydro-3-hydroxy-4-oxo-7,11-methanopyrimido[1,2-a]azepin-10(4H)-yl]-N,N-dimethyl-], the IC50 is under 10 nM.

Turning to `O=C(NC12CCC(Cn3c1nc(C(=O)NCc1ccc(F)cc1)c(O)c3=O)C2)OCc1ccccc1` (stereo not shown) [Example 189, Carbamic acid, [2-[[[(4-fluorophenyl)methyl]amino]carbonyl]-6,7,8,9-tetrahydro-3-hydroxy-4-oxo-7,10-methanopyrimido[1,2-a]azepin-10(4H)-yl]-, phenylmethyl ester], the IC50 is under 10 nM.

On to `CS(=O)(=O)N1CCN(C(=O)N2CCN(C(=O)C(=O)NC34CCC(CC3)Cn3c4nc(C(=O)NCc4ccc(F)cc4)c(O)c3=O)CC2)C1=O` [Example 144, N-(4-Fluorobenzyl)-3-hydroxy-10-(((4-((3-(methylsulfonyl)-2-oxo-1-imidazolidinyl)carbonyl)-1-piperazinyl)(oxo)acetyl)amino)-4-oxo-4,6,7,8,9,10-hexahydro-7,10-ethanopyrimido[1,2-a]azepine-2-carboxamide], for which the IC50 was under 10 nM.

In the case of `CC(=O)NC12CCC(Cn3c1nc(C(=O)NCc1ccc(F)cc1)c(O)c3=O)C2` (stereo not shown) [Example 191, 7,10-Methanopyrimido[1,2-a]azepine-2-carboxamide, 10-(acetylamino)-N-[(4-fluorophenyl)methyl]-4,6,7,8,9,10-hexahydro-3-hydroxy-4-oxo-], the IC50 is under 10 nM.

In the case of `COCCOC(=O)NC12CCC(CC1)Cn1c2nc(C(=O)NCc2ccc(F)cc2)c(O)c1=O` [Example 259, Carbamic acid, [2-[[[(4-fluorophenyl)methyl]amino-0]carbonyl]-6,7,8,9-tetrahydro-3-hydroxy-4-oxo-7,10-ethanopyrimido[1,2-a]azepin-10(4H)-yl]-, 2-methoxyethyl ester], the IC50 is under 10 nM.

As to `CNC(=O)C(=O)NC12CCC(Cn3c1nc(C(=O)NCc1ccc(F)cc1)c(O)c3=O)C2` (stereo not shown) [Example 193, Ethanediamide, N-[2-[[[(4-fluorophenyl)methyl]amino]carbonyl]-6,7,8,9-tetrahydro-3-hydroxy-4-oxo-7,10-methanopyrimido[1,2-a]azepin-10(4H)-yl]-N′-methyl-], the IC50 is under 10 nM.

On to `CC(=O)Nc1cc(C(=O)NC23CCC(CC2)Cn2c3nc(C(=O)NCc3ccc(F)cc3)c(O)c2=O)ccn1` [Example 318, 7,10-Ethanopyrimido[1,2-a]azepine-2-carboxamide, 10-[[[2-(acetylamino)-4-pyridinyl]carbonyl]amino]-N-[(4-fluorophenyl)methyl]-4,6,7,8,9,10-hexahydro-3-hydroxy-4-oxo-], for which the IC50 was under 10 nM.

`CN(C)C(=O)NC12CCC(CC1)Cn1c2nc(C(=O)NCc2ccc(F)cc2)c(O)c1=O` [Example 27, 10-((Dimethylcarbamoyl)amino)-N-(4-fluorobenzyl)-3-hydroxy-4-oxo-4,6,7,8,9,10-hexahydro-7,10-ethanopyrimido[1,2-a]azepine-2-carboxamide]: the IC50 lay within 10 to 100 nM.

In the case of `CC(=O)Nc1cncc(C(=O)NC23CCC(CC2)Cn2c3nc(C(=O)NCc3ccc(F)cc3)c(O)c2=O)c1` [Example 321, 7,10-Ethanopyrimido[1,2-a]azepine-2-carboxamide, 10-[[[5-(acetylamino)-3-pyridinyl]carbonyl]amino]-N-[(4-fluorophenyl)methyl]-4,6,7,8,9,10-hexahydro-3-hydroxy-4-oxo-], the IC50 is under 10 nM.

Turning to `Cc1cc(CNC(=O)c2nc3n(c(=O)c2O)CC2CCC3(N(C)C(=O)C(=O)N(C)Cc3cn(C)nc3C)CC2)ccc1F` [Example 170, N-((1,3-Dimethyl-1H-pyrazol-4-yl)methyl)-N′-(2-((4-fluoro-3-methylbenzyl)carbamoyl)-3-hydroxy-4-oxo-6,7,8,9-tetrahydro-7,10-ethanopyrimido[1,2-a]azepin-10(4H)-yl)-N,N′-dimethylethanediamide], the IC50 was under 10 nM.

In the case of `O=C(NCc1ccc(F)cc1)c1nc2n(c(=O)c1O)CC1CCC2(NC(=O)N2CCOCC2)CC1` [Example 22, N-(4-Fluorobenzyl)-3-hydroxy-10-((4-morpholinylcarbonyl)amino)-4-oxo-4,6,7,8,9,10-hexahydro-7,10-ethanopyrimido[1,2-a]azepine-2-carboxamide], the IC50 fell in the range of 10 to 100 nM.

On to `CN(C)C(=O)C(=O)N(C)C12CCC(CC1)Cn1c2nc(C(=O)NCc2ccc(F)cc2)c(O)c1=O` [Example 157, N-(2-((4-Fluorobenzyl)carbamoyl)-3-hydroxy-4-oxo-6,7,8,9-tetrahydro-7,10-ethanopyrimido[1,2-a]azepin-10(4H)-yl)-N,N′,N′-trimethylethanediamide], for which the IC50 was under 10 nM.

As to `O=C(NC12CCC(CC1)Cn1c2nc(C(=O)NCc2ccc(F)cc2)c(O)c1=O)C(=O)N1CCN(C(=O)c2cccs2)CC1` [Example 142, N-(4-Fluorobenzyl)-3-hydroxy-4-oxo-10-((oxo(4-(2-thiophenylcarbonyl)-1-piperazinyl)acetyl)amino)-4,6,7,8,9,10-hexahydro-7,10-ethanopyrimido[1,2-a]azepine-2-carboxamide], the IC50 was under 10 nM.

`CN(C)C(=O)C(=O)NC12CCC(CC1)Cn1c2nc(C(=O)NCc2ccc(F)c(Cl)c2)c(O)c1=O` [Example 112, N′-(2-((3-Chloro-4-fluorobenzyl)carbamoyl)-3-hydroxy-4-oxo-6,7,8,9-tetrahydro-7,10-ethanopyrimido[1,2-a]azepin-10(4H)-yl)-N,N-dimethylethanediamide]: the IC50 is under 10 nM.

With `CS(=O)(=O)N1[C@@H]2C[C@@H]2C[C@H]1C(=O)NC12CCC(CC1)Cn1c2nc(C(=O)NCc2ccc(F)cc2)c(O)c1=O` [Example 294, 7,10-Ethanopyrimido[1,2-a]azepine-2-carboxamide, N-[(4-fluorophenyl)methyl]-4,6,7,8,9,10-hexahydro-3-hydroxy-10-[[[(1R,3S,5R)-2-(methylsulfonyl)-2-azabicyclo[3.1.0]hex-3-yl]carbonyl]amino]-4-oxo-], the IC50 is under 10 nM.

As to `CN(C)C(=O)C(=O)NC12CCC(Cn3c1nc(C(=O)NCc1ccc(F)cc1)c(O)c3=O)C2` (single isomer, unassigned) [Example 411, Ethanediamide, N′-[2-[[[(4-fluorophenyl)methyl]amino]carbonyl]-6,7,8,9-tetrahydro-3-hydroxy-4-oxo-7,11-methanopyrimido[1,2-a]azepin-10(4H)-yl]-N,N-dimethyl-], the IC50 is under 10 nM.

In the case of `Cc1cc(C(=O)NC23CCC(CC2)Cn2c3nc(C(=O)NCc3ccc(F)cc3)c(O)c2=O)n(C)n1` [Example 241, 7,10-Ethanopyrimido[1,2-a]azepine-2-carboxamide, 10-[[(1,3-dimethyl-1H-pyrazol-5-yl)carbonyl]amino]-N-[(4-fluorophenyl)methyl]-4,6,7,8,9,10-hexahydro-3-hydroxy-4-oxo-], the IC50 is under 10 nM.

In the case of `CCN(C)C(=O)C(=O)NC12CCC(CC1)Cn1c2nc(C(=O)NCc2ccc(F)cc2)c(O)c1=O` [Example 101, N-Ethyl-N′-(2-((4-fluorobenzyl)carbamoyl)-3-hydroxy-4-oxo-6,7,8,9-tetrahydro-7,10-ethanopyrimido[1,2-a]azepin-10(4H)-yl)-N-methylethanediamide], the IC50 was under 10 nM.

For the compound `NC12CCC(CC1)n1c2nc(C(=O)NCc2ccc(F)cc2)c(O)c1=O` [Example 11, 6,9-Ethano-4H-pyrido[1,2-a]pyrimidine-2-carboxamide, 9-amino-N-[(4-fluorophenyl)methyl]-6,7,8,9-tetrahydro-3-hydroxy-4-oxo-], the IC50 is 10 to 100 nM.

Turning to `CN(C)C(=O)C(=O)NC12CCC(CC1)Cn1c2nc(C(=O)NCc2ccc(F)c(C(F)(F)F)c2)c(O)c1=O` [Example 119, N′-(2-((4-Fluoro-3-(trifluoromethyl)benzyl)carbamoyl)-3-hydroxy-4-oxo-6,7,8,9-tetrahydro-7,10-ethanopyrimido[1,2-a]azepin-10(4H)-yl)-N,N-dimethylethanediamide], the IC50 is under 10 nM.

Turning to `CN(C)C(=O)C(=O)NC12CCC(CC1)Cn1c2nc(C(=O)NCc2ccc(Cl)c(Cl)c2)c(O)c1=O` [Example 372], the IC50 was under 10 nM.

With `COCCN1CCN(C(=O)C(=O)NC23CCC(CC2)Cn2c3nc(C(=O)NCc3ccc(F)cc3)c(O)c2=O)CC1` [Example 73, N-(4-Fluorobenzyl)-3-hydroxy-10-(((4-(2-methoxyethyl)-1-piperazinyl)(oxo)acetyl)amino)-4-oxo-4,6,7,8,9,10-hexahydro-7,10-ethanopyrimido[1,2-a]azepine-2-carboxamide], the IC50 is under 10 nM.

As for `Cc1nn(C)cc1CN(C)C(=O)C(=O)N(C)C12CCC(CC1)Cn1c2nc(C(=O)NCc2ccc(F)cc2)c(O)c1=O` [Example 169, N-((1,3-Dimethyl-1H-pyrazol-4-yl)methyl)-N′-(2-((4-fluorobenzyl)carbamoyl)-3-hydroxy-4-oxo-6,7,8,9-tetrahydro-7,10-ethanopyrimido[1,2-a]azepin-10(4H)-yl)-N,N′-dimethylethanediamide], the IC50 was under 10 nM.

`CN(C(=O)C(=O)NC12CCC(CC1)Cn1c2nc(C(=O)NCc2ccc(F)cc2)c(O)c1=O)C1CC1` [Example 82, N-Cyclopropyl-N′-(2-((4-fluorobenzyl)carbamoyl)-3-hydroxy-4-oxo-6,7,8,9-tetrahydro-7,10-ethanopyrimido[1,2-a]azepin-10(4H)-yl)-N-methylethanediamide]: the IC50 is under 10 nM.

Regarding `O=C(NC12CCC(CC1)Cn1c2nc(C(=O)NCc2ccc(F)cc2)c(O)c1=O)C(=O)N1CCN(c2ccccc2)CC1` [Example 77, N-(4-Fluorobenzyl)-3-hydroxy-4-oxo-10-((oxo(4-phenyl-1-piperazinyl)acetyl)amino)-4,6,7,8,9,10-hexahydro-7,10-ethanopyrimido[1,2-a]azepine-2-carboxamide], the IC50 was under 10 nM.
